Test results taken from patent publication US5648349A, “PLA2 inhibitors” (Monsanto Company, priority 1995, dated 1997).
Like-named read-outs stand apart in the source and are kept apart here.

Assays:
[1] = tested on: purified calcium-independent canine myocardial PLA2; test: Calcium-Independent PLA2 Assay (purified canine myocardial cytosolic PLA2, release of radiolabeled oleic acid); type: biochemical; settings: pH 7.0, 6.4 mM EGTA, 1 μM substrate, 5 min at 37° C., read-out: IC50 Canine Heart PLA2
Protocol: This assay consists of determining the amount of radiolabeled fatty acid which is liberated from the radiolabeled phospholipid substrate by purified calcium-independent canine myocardial PLA2 in the presence of varying concentrations of the inhibitor. The concentration of inhibitor which decreases the activity of the enzyme to 50% of the activity observed in the absence of that inhibitor is determined. This concentration is defined as the IC50.
Calcium-Independent PLA2 Assay
Purified canine myocardial cytosolic PLA2 was isolated from an ATP-agarose eluate as described by Wolf, R. A., and Gross, R. W., J. Biol. Chem., 260, 7295-7303 (1985). The calcium-independent myocardial PLA2 was incubated with selected concentrations (10^-10 to 10^-4 M) of test compound in 168 mM Tris-Cl, 6.4 mM EGTA (a calcium chelator) (pH 7.0) for 5 min. at 25° C. Appropriate controls were performed in the absence of test compound. Catalysis was initiated by injection of 1 μM radiolabeled substrate (1-O-(Z)-(1'-hexadecenyl)-2-[9,10^-3 H]-oleoyl-3-phosphorylcholine). After a 5 min. incubation at 37° C., reaction products were extracted with n-butanol, separated by thin layer chromatography, and quantified by scintillation spectrometry. PLA2 activity was compared in the presence and absence of test compound and the IC50 was determined.

sheep platelet PLA2 = test: Micromolar Calcium-Dependent PLA2 Assay (sheep platelet cytosolic PLA2); type: biochemical; settings: pH 7.2, 1 μM CaCl2, 1 μM substrate, 10 min at 37° C.
Description: (§1) Specifically, one micromolar calcium-dependent mammalian PLA2 assay was used, i.e., sheep platelet PLA2, and two millimolar calcium-dependent mammalian PLA2 assays were used, i.e., human synovial fluid PLA2 and porcine pancreatic PLA2. The PLA2 enzymes represent different groups of PLA2 enzymes. Myocardial PLA2, platelet PLA2 and secreted PLA2 enzymes (human synovial fluid PLA2 and porcine pancreatic PLA2) have very different calcium requirements, which may be typical of their respective classes.
Micromolar Calcium-Dependent PLA2 Assay
Homogeneous sheep platelet cytosolic PLA2 was prepared as described by Loeb, L. A., and Gross, R. W., J. Biol. Chem., 261, 10467-10470 (1986). The purified calcium-dependent platelet PLA2 was preincubated in 70 mM Tris-Cl (pH 7.2) containing 1 μM CaCl2 and test compound for 5 min. at 25° C. Catalysis was initiated by injection of 1 μM radiolabeled substrate (1-O-(Z)-(1'-hexadecenyl)-2-[9,10^-3 H]-oleoyl-3-phosphorylcholine). After a 10 min. incubation period at 37° C., reaction products were extracted with n-butanol, separated by thin layer chromatography, and quantified by scintillation spectrometry. PLA2 activity was compared in the presence and absence of test compound and the IC50 was determined.
See Zupan, L. A., et al, "Calcium is sufficient but not necessary for activation of sheep platelet cytosolic phospholipase A2 ", FEBS Letters, Vol. 284, No. 1, 27-30 (1991).

[2] = target: T1, human synovial fluid PLA2 (Homo sapiens, UniProt P14555); test: Millimolar Calcium-Dependent PLA2 Assay (human synovial fluid PLA2, [14C]-oleate labeled E. coli substrate); type: biochemical; settings: pH 7.0, 5 mM CaCl2, 30 min at 37° C., ">>" = little or no inhibition at highest concentration used
T1 construct: Purified human synovial fluid PLA2; tissue R. C; Franson (Medical College of Virginia, Richmond, Va.); host or cells: human synovial fluid
T1 sequence (P14555 21-144): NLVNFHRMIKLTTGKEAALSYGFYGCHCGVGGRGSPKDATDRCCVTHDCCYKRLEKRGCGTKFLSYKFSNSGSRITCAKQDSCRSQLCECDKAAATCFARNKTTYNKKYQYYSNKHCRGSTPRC
Description: as §1
(§2) Millimolar Calcium-Dependent PLA2 Assays
Purified human synovial fluid PLA2 (purified by the procedure of Fawzy, A. A. and Franson, R. C. Biophys. J. 49, 533a [1986]) was obtained from R. C. Franson (Medical College of Virginia, Richmond, Va.). PLA2 activity was measured by using [^14 C]-oleate labeled autoclaved E. coli as substrate as described by Franson, R. C., Patriarca, P., and Elsbach, P. J., Lipid Res. 15, 380-388 (1974). The assay was performed at 37° C. for 30 min. in a final volume of 100 μL 50 mM Hepes buffer (pH 7.0) containing 150 mM NaCl, 5 mM CaCl2, and E. coli cells (corresponding to 10 nmol phospholipid). The test compound or control vehicle was preincubated with PLA2 for 5 min., followed by adding E. coli to initiate the reaction. The reaction was terminated by adding 2 mL tetrahydrofuran. The reaction product, [^14 C]-oleic acid, was isolated using a 1 mL Bond Elute--NH2 column and counted by liquid scintillation spectrometry.

HL-60 cells = test: HL-60 Cell Assay for LTB4 and PGE2 Production (calcium ionophore A23187 induced); type: cell-based; settings: Homo sapiens; for IC50: A23187 5×10^-6 M
Protocol: An additional whole cell assay was also performed. In this assay, HL-60 cells are induced with the calcium ionophore A23187 in the presence of varying amounts of inhibitor, and the amounts of the prostaglandin E2 (PGE2) and leukotriene B4 (LTB4) which form are measured. Calcium ionophore A23187 activates a calcium-dependent PLA2 which leads to the enhanced production of the arachidonic acid metabolites PGE2 and LTB4. The concentrations of inhibitor which decrease the production of PGE2 and LTB4 by 50% relative to controls are expressed as IC50 values.
HL-60 Cell Assay for LTB4 and PGE2 Production
HL-60 cells grown exponentially in culture were induced to differentiate into granulocytes by a four day incubation with 0.8% (v/v) N,N-dimethylformamide. Prior to assay, differentiated HL-60 cells were washed once with Hanks' balanced salt solution containing 0.35 mg/mL sodium bicarbonate and 10 mM Hepes, pH 7.3 (HBSS) and resuspended in HBSS at a 3×10^6 cells/mL concentration. DMSO or test compounds solubilized in DMSO were added at 1:100 dilution to 1.0 mL HL-60 cell suspensions (3×10^6 cells) and preincubated at 37° C. for 10 min. in a shaking water bath. After an additional 5 min. incubation with 5×10^-6 M calcium ionophore, A23187 (Calbiochem, LaJolla, Calif.), the cells were centrifuged at 12,800×6 for 15 seconds and the supernatant (0.8 mL) removed and stored at -20° C. for LTB4 and PGE2 quantitation by radioimmunoassay (kits obtained from Amersham, United Kingdom and NEN Research Products, N. Billerica, Mass.).

rat neonatal myocytes = settings: cited from earlier work
porcine pancreatic PLA2 = target: T2, porcine pancreatic PLA2 (Sus scrofa, UniProt P00592); test: Millimolar Calcium-Dependent PLA2 Assay (porcine pancreatic PLA2, [14C]-oleate labeled E. coli substrate); type: biochemical
T2 construct: Purified porcine pancreatic PLA2 was obtained from Sigma; purchased Sigma (St. Louis, Mo.); host or cells: porcine pancreas
T2 sequence (P00592 23-146): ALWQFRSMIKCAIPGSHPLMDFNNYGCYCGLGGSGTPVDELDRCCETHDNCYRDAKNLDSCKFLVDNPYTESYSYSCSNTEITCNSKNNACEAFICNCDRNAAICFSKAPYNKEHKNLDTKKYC
Description: as §1, §2
Purified porcine pancreatic PLA2 was obtained from Sigma (St. Louis, Mo.). PLA2 activity was measured by using [14C]-oleate labeled autoclaved E. coli as described by Franson, Patriarca and Elsbach (referenced above). The assay was performed at 37° C. for 5 min. in a final volume of 100 μL Tris-HCl buffer (100 mM, pH 8.0) containing 1 mM EDTA, 10 mM CaCl2, and E. coli (containing […] phospholipid). The test compound or control vehicle was preincubated with PLA2 for 5 min. followed by adding E. coli to initiate the reaction. The reaction was terminated by adding 2 mL tetrahydrofuran. The reaction product [^14 C]-oleic acid, was isolated using a 1 mL Bond Elute--NH2 column and counted by liquid scintillation spectrometry.

[3] = IC50 HSF PLA2, human synovial fluid
[4] = human synovial fluid, read-out: IC50 HSF PLA2
[5] = LTB4 production, ">>" = little or no inhibition at highest concentration used, read-out: IC50 HL-60 LTB4
[6] = PGE2 production, ">" inhibition but not enough for IC50, ">>" little or no inhibition at highest concentration, read-out: IC50 HL-60 PGE2
[7] = pH 8.0, 10 mM CaCl2, 5 min at 37° C., ">>" = little or no inhibition at highest concentration used, read-out: IC50 Porcine Pancreatic PLA2

CCCCCCCCCCCC#Cc1ccccc1/C=C/P(=O)(O)O [Example 14, 2-[2-(1-Tridecynyl)phenyl]ethenylphosphonic acid]
IC50 [1]: 4500 nM | IC50 (sheep platelet PLA2): 2900 nM

CCCCCCCCCCCC#Cc1cccc(C=C(P(=O)(O)O)P(=O)(O)O)c1 [Example 3, Disodium [2-[3-(1-tridecynyl)phenyl]ethenylidene]bisphosphonate]
IC50 [1]: 360 nM | IC50 (sheep platelet PLA2): 3200 nM | IC50 [2, 3]: 38 µM

CCCCCCCCCCCC#Cc1ccccc1C=C(P(=O)(O)O)P(=O)(O)O [Example 11, Disodium [2-[2-(1-tridecynyl)phenyl]ethenylidene]bisphosphonate]
IC50 [1]: 1900 nM | IC50 (sheep platelet PLA2): 2800 nM | IC50 [2, 3]: 25 µM

CCCCCCCCCCCC#Cc1ccccc1C=C(P(=O)(OCC)OCC)P(=O)(OCC)OCC [Example 9, Tetraethyl [2-[2-(1-tridecynyl)phenyl]ethenylidene]bisphosphonate]
IC50 [1]: 1500 nM | IC50 (sheep platelet PLA2): 160 nM | IC50 [2, 4]: > 100 µM | IC50 (HL-60 cells; [5]): 2.6 µM | IC50 (HL-60 cells; [6]): 4.4 µM

O=C(O)CI [iodoacetate]
levels of ATP, release of arachidonic acid and morphological alterations of the myocytes (rat neonatal myocytes; rat neonatal myocytes, Chien et al 1985 (cited)): lowers the levels of ATP which results in the release of arachidonic acid and morphological alterations of the myocytes

COC1=CCC2=C(CCC3C2CC[C@@]2(C)C3CC[C@@H]2N(C)CCCN(C)C)C1 (stereo partly drawn) [U26,384]
release of arachidonic acid, phospholipid degradation, sarcolemmal membrane defects and release of creatine kinase induced by iodoacetate (rat neonatal myocytes; rat neonatal myocytes treated with iodoacetate, Sen et al (cited)): prevented the release of arachidonic acid, phospholipid degradation, sarcolemmal membrane defects and the release of creatine kinase

CCCCCCCCCCCC#Cc1ccccc1C=C(P(=O)(O)O)P(=O)(O)O [Example 10, [2-[2-(1-Tridecynyl)phenyl]ethenylldene]bisphosphonic acid]
IC50 [1]: 710 nM | IC50 (sheep platelet PLA2): 50000 nM | IC50 [2, 4]: 50 µM | IC50 (porcine pancreatic PLA2): > 100 µM | IC50 (HL-60 cells; [5]): 10 µM | IC50 (HL-60 cells; [6]): > 10 µM | activation at 10 µM (HL-60 cells; footnote b to the entry 10 (μM), + = activation, LTB4): 21%

CCCCCCCCCCCC#Cc1cccc(C=C(P(=O)(O)O)P(=O)(O)O)c1 [Example 2, [2-[3-(1-Tridecynyl)phenyl]ethenylidene]bisphosphonic acid]
IC50 [1]: 450 nM | IC50 (sheep platelet PLA2): 11000 nM | IC50 [2, 4]: 31 µM | IC50 (porcine pancreatic PLA2): > 100 µM | IC50 (HL-60 cells; [5]): > 10 µM | IC50 (HL-60 cells; [6]): > 10 µM

CCCCCCCCC(=O)NCC#Cc1ccccc1C=C(P(=O)(OCC)OCC)P(=O)(OCC)OCC [Example 18, Tetraethyl [2-[2-[3-[(1-oxononyl)amino]-1-propynyl]phenyl]ethenylidene]bisphosphonate]
IC50 [1]: > 100000 nM | IC50 (sheep platelet PLA2): ~100000 nM

CCCCCCCCCCCC#Cc1cccc(C=C(P(=O)(OCC)OCC)P(=O)(OCC)OCC)c1 [Example 1, Tetraethyl [2-[3-(1-tridecynyl)phenyl]ethenylidene]bisphosphonate]
IC50 [1]: 560 nM | IC50 (sheep platelet PLA2): 180 nM | IC50 [2, 4]: > 100 µM | activation at 100 µM (porcine pancreatic PLA2; 5 min, footnote a to the entry 100 (μM), + = activation): 40% | IC50 (porcine pancreatic PLA2; [7]): 100 µM | IC50 (HL-60 cells; [5]): 1.2 µM | IC50 (HL-60 cells; [6]): 3 µM

CCCCCCCCCCCC#Cc1ccccc1/C=C(\C(=O)OCC)P(=O)(OCC)OCC [Example 5, Ethyl 2-(diethoxyphosphinyl)-3-[2-(1-tridecynyl)phenyl]-2-E-propenoate]
IC50 [1]: 340 nM | IC50 (sheep platelet PLA2): 2400 nM | IC50 [2, 4]: > 100 µM | IC50 (porcine pancreatic PLA2; [7]): > 100 µM | IC50 (HL-60 cells; [5]): 1.3 µM | IC50 (HL-60 cells; [6]): 2.3 µM

CCCCCCCCCCCC#Cc1cccc(P(=O)(OCC)OCC)c1 [Example 8, Diethyl [3-(1-tridecynyl)phenyl]phosphonate]
IC50 [1]: 360 nM | IC50 (sheep platelet PLA2): 220 nM

CCCCCCCCCCCC#Cc1ccccc1/C=C/P(=O)(OCC)OCC [Example 13, Diethyl E-2-[2-(1-tridecynyl)phenyl]ethenylphosphonate]
IC50 [1]: 3000 nM | IC50 (sheep platelet PLA2): 1100 nM

CCCCCCCCCCCC#Cc1ccccc1/C=C(\C(=O)OCC)P(=O)(O)O [Example 6, Ethyl E-2-phosphono-3-[2-(1-tridecynyl)phenyl]propenoate]
IC50 [2, 4]: 16 µM | IC50 (porcine pancreatic PLA2; [7]): 2.5 µM | IC50 (HL-60 cells; [5]): 4.4 µM | IC50 (HL-60 cells; [6]): 3.5 µM
